Results: patent US9990464B1, “Label-free biomolecular interaction analysis using a rapid analyte dispersion injection method” (SENSIQ TECHNOLOGIES, INC., priority 2012, dated 2018)

Assay: apparent (effective) diffusion coefficient from internal standard-based calibration of the dispersion model
Type: physicochemical
Details: coiled tube, 50 μL/min, 25° C.; sucrose internal standard and Equation 1 calibration by Mr
Description: In one example, the rapid dispersion injection method is performed in a biosensor comprising a flow channel conduit that is in fluid connection with a flow cell conduit downstream from the analyte sample injection point. The flow channel conduit is tightly coiled around a vertically-oriented support and is preferably filled with a carrier fluid free of analyte prior to the analyte sample injection. Although it is preferred to use a vertically-oriented coil, it is not essential and other configurations are possible. The flow cell conduit houses at least two sensing regions, a first sensing region having one or more ligands immobilized on its surface and a second sensing region free of ligand. A first fluid sample comprising a reference material (e.g. sucrose) of sufficient molecular weight and concentration to elicit a bulk refractive index response is injected into the flow channel conduit under conditions sufficient to cause the reference material to undergo a dispersion event in route to the flow cell thereby producing a concentration gradient. […] The bulk refractive index response of the reference material is recorded at the second sensing surface as the first fluid sample flows continuously through the flow cell thereby generating a standard curve. The standard curve provides an internal standard which acts as a witness to the particular injection conditions of that assay. The standard curve is then fitted to the dispersion model (Equations 2 and 3 described below) to calculate a reference diffusion coefficient. […]
In brief, the universal calibration function was determined by measuring the bulk refractive index response of eight different compounds of varying molecular (Mr) under twenty-seven experimental dispersion conditions. […] An apparent diffusion coefficient (D′) was obtained for the eight compounds by fitting the dispersion model defined by Equations 2 and 3 (set forth below) to each measured bulk refractive index response curve. […]

Structure (SMILES) | Dapp (apparent / effective diffusion coefficient)
NS(=O)(=O)c1ccc(C(=O)O)cc1 [CBS, 4-carboxybenzenesulfonamide] | 1.01E−09 m^2s^−1
NS(=O)(=O)c1cc(C(=O)O)c(NCc2ccco2)cc1Cl [Furosemide, furosemide] | 8.29E−10 m^2s^−1
CC(=O)Nc1nnc(S(N)(=O)=O)s1 [Acetazolamide, acetazolamide] | 9.67E−10 m^2s^−1
